Measured values: patent US20160145580A1, “METHOD OF CULTURING CANCER STEM CELLS” (AGENCY FOR SCIENCE, TECHNOLOGY AND RESEARCH, priority 2013, published 2016)
Where two headings read alike, the source gives them in different places.

Test system: MDA-MB-231 cells
Experiment: cells
Type: cell-based
Details: Homo sapiens, MDA-MB-231, 48 h
Procedure: Here, 250 μl of MDA-MB-231 cells in culture medium at cell density of 5.2×10^3 cells/ml was seeded onto the gels (0.2, 0.5, 1.0, 2.5 and 4.0 kPa). The culture medium was changed every 3 days. […] Then, the cells were washed with PBS and the fluorescence intensity was measured using the AlamarBlue cell viability assay as described above. Cell viability in the presence of anti-cancer drugs was normalized to the untreated control groups (0 μM).

With COc1cccc2c1C(=O)c1c(O)c3c(c(O)c1C2=O)C[C@@](O)(C(=O)CO)C[C@@H]3O[C@H]1C[C@H](N)[C@H](O)[C@H](C)O1 [doxorubicin] the viability at 100 µM (read-out: cell viability, 100 μM doxorubicin, 48 hours, 0.2 and 0.5 kPa gels) was roughly 80%, the viability at 100 µM (read-out: cell viability, 100 μM doxorubicin, 48 hours, HA-Tyr gels 2.5 and 4.0 kPa) was roughly 20% and the viability at 100 µM (read-out: cell viability, 100 μM doxorubicin, 48 hours, cell culture plate) was roughly 10%.
